Data taken from US20060040312A1 (priority 1999, published 2006).

Tests used:
[1] = test system: primary cultures of cortex
cardiac myocytes = type: cell-based, rat
[2] = test system: histamine-contracted, isolated Guinea pig tracheal segments
[3] = test system: primary cultures of cortex; type: cell-based, rat
[4] = test system: primary cortical cultures
[5] = biological target: Shaker H4 potassium channel (Drosophila melanogaster, UniProt P08510); conditions: cited from earlier work
F425G Shaker mutation = F425G Shaker mutation (Drosophila melanogaster, UniProt P08510, F425G); conditions: cited from earlier work
Sequence of F425G Shaker mutation (P08510 whole entry F425G): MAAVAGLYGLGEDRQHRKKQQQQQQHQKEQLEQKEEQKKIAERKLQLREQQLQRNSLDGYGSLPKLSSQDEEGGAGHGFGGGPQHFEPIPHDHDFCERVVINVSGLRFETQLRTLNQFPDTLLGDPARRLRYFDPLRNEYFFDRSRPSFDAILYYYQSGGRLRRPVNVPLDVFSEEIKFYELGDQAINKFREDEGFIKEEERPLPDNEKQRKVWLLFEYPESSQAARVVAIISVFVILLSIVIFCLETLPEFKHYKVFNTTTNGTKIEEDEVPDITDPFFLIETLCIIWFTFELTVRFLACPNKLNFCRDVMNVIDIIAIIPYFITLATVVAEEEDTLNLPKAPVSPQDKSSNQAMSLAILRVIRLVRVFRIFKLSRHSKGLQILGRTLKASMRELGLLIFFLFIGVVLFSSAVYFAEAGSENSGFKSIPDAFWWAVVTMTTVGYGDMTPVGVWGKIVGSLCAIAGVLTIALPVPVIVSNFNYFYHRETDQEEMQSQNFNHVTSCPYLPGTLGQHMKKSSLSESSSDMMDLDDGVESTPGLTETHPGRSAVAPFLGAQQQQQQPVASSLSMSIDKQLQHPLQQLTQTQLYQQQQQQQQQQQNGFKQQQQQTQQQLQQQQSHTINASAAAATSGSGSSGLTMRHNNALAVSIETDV

Sequence of Shaker H4 potassium channel (P08510 whole entry): as the sequence (P08510 whole entry F425G) above, with G425F counted along it

## Nc1ccncc1 [4-AP, 4-aminopyridine]
[1]
  effect of K+ channel antagonist on the hyperpolarization seen with 100 nM κ-PVIIA: without any detectable effect

## COc1ccc(Cl)cc1C(=O)NCCc1ccc(S(=O)(=O)NC(=O)NC2CCCCC2)cc1 [Glibenclamide]
Cardiac myocytes
  sensitivity of κ-PVIIA-evoked currents to KATP antagonist: sensitive
[2]
  effect of KATP channel antagonist on the κ-PVIIA response: reduce effects of κ-PVIIA
[1]
  effect of KATP antagonist on the κ-PVIIA induced hyperpolarization: significant reductions

## CCCCNC(=O)NS(=O)(=O)c1ccc(C)cc1 [Tolbutamide]
[3]
  sensitivity of κ-PVIIA-evoked currents to KATP antagonist: sensitive
[2]
  effect of KATP channel antagonist on the κ-PVIIA response: reduce effects of κ-PVIIA
[1]
  effect of KATP antagonist on the κ-PVIIA induced hyperpolarization: significant reductions
  inhibition of the κ-PVIIA (100 nM) response: inhibition
Cortical cells
  effect of KATP antagonist on κ-PVIIA protection against glutamate cytotoxicity: blocked

## Iberiotoxin (QFTDVDCSVSKECWSVCKDLFGVDRGKCMGKKCRCYQ; UniProt P24663 1-37, looked up) [IBTX]
[1]
  effect of K+ channel antagonist on the hyperpolarization seen with 100 nM κ-PVIIA: without any detectable effect

## Triton [reference compound]
[4]
  increase in fluorescence (Enzchek protease-sensitive dye): ~14%

## charybdotoxin [reference compound]
[5]
  block / inhibition of the Shaker channel: inhibit
F425G Shaker mutation
  effect of F425G Shaker mutation on toxin affinity / sensitivity: increases charybdotoxin affinity by three orders of magnitude
